Measured values from US8481495B2 (TetraLogic Pharmaceuticals Corporation, priority 2009, dated 2013).

Experiments:
XIAP BIR-3 = target: T1, XIAP BIR-3 (Homo sapiens, UniProt P98170); experiment: Fluorescence polarization binding to XIAP BIR-3 with labeled peptide AbuRPF-K(5-Fam)-NH2; conditions: XIAP BIR-3, 40 nM BIR3, 5 nM labeled peptide, 15 min RT, pH 7.5; read-out: XIAP, nM (binding affinity KD, as range)
T1 construct: 40 nM of the respective IAP BIR3
Protocol: (§1) The binding affinities of the compounds are reported as a KD value (μM). Briefly, various concentrations of test peptides were mixed with 5 nM of the fluorescently labeled peptide (i.e., a mutated N-terminal Smac peptide-AbuRPF-K(5-Fam)-NH2) and 40 nM of the respective IAP BIR3 for 15 min at RT in […] of 0.1M Potassium Phosphate buffer, pH 7.5 containing […] bovine g-globulin. Following incubation, the polarization values (mP) were measured on a Victor2V™ (available from PerkinElmer® Life Sciences) using a 485 nm excitation filter and a 520 nm emission filter. The reported binding affinities (KD values) are supplied as ranges (A=<0.1 μM, B=0.1 μM to 1 μM, C=>1 μM to 10 μM, D=>10 μM).

cIAP-1 BIR-3 = target: T2, cIAP-1 BIR-3 (Homo sapiens, UniProt Q13490); experiment: Fluorescence polarization binding to cIAP-1 BIR-3 with labeled peptide AbuRPF-K(5-Fam)-NH2; conditions: cIAP-1 BIR-3, 40 nM BIR3, 5 nM labeled peptide, 15 min RT, pH 7.5; read-out: cIAP1, nM (binding affinity KD, as range)
T2 construct: 40 nM of the respective IAP BIR3
T2 sequence (Q13490 253-363 limits assumed): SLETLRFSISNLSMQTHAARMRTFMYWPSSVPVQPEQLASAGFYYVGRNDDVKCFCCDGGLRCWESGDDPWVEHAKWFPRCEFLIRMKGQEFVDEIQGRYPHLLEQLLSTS
Protocol: as §1

SK-OV-3 cells = experiment: MTT cell growth inhibition assay in ovarian cancer cell line SK-OV-3; type: cell-based; conditions: Homo sapiens, 72 hrs incubation, read-out: SKOV3, nM (CC50, concentration giving 50% cell survival, as range)
Protocol: Compounds of the invention also were tested for their ability to inhibit the growth of an ovarian cancer cell line, SK-OV-3. A known assay previously used for measuring cell growth (as described in Hansen, M. B., Nielsen, S. E., and Berg, K. (1989) J. Immunol. Methods 119, 203-210 and incorporated herein by reference in its entirety) was used. Briefly, SK-OV-3 cells are seeded in 96-well plates in McCoy's medium containing 10% fetal bovine serum albumin (5,000 per well) and incubated overnight at 37° C. The next day, test compounds are added at various concentrations (0.003-10 μM) and the plates are incubated at 37° C. for an additional 72 hrs. This incubation time was considered to be optimal for measuring inhibitory effects of the different compounds tested. 50 microliters of 5 mg/mL MTT reagent is added to each well and the plates are incubated at 37° C. for another three (3) hours. At the end of the three (3) hour incubation period, 50 microliters of DMSO is added to each well to dissolve cells and the optical density (OD) of the wells is measured with a microplate reader (Victor^2 1420™, Wallac, Finland) at 535 nm. Cell survival (CS) was calculated using the following equation: CS=(OD treated well/mean OD control wells)×100%.
The CC50 (reported in the following tables), is defined as the drug concentration that results in 50% cell survival (CS), and is derived by calculating the point where the dose-response curve crosses the 50% CS point using GraphPad Prism® graphing software. The reported CC50 values are supplied as ranges (A=<0.1 μM, B=0.1 μM to 1 μM, C=>1 μM to 10 μM, D=>10 μM).

T1 sequence (P98170 241-356 limits assumed): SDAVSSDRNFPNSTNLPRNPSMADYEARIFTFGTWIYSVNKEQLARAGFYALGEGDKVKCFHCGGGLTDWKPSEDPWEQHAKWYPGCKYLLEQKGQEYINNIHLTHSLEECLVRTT

CNC(=O)N1C[C@H](C(=O)N[C@@H]2CCCc3ccccc32)[C@@H]2[C@H]1CCN2C(=O)[C@@H](NC(=O)[C@H](C)NC)C(C)(C)C [Example 40, 4-[3,3-Dimethyl-2-(2-methylamino-propionylamino)-butyryl]-hexahydro-pyrrolo[3,2-b]pyrrole-1,3-dicarboxylic acid 1-methylamide 3-[(1,2,3,4-tetrahydro-naphthalen-1-yl)-amide]] was tested, and the Kd (XIAP BIR-3) was < 100 nM, the Kd (cIAP-1 BIR-3) was < 100 nM and the CC50 (SK-OV-3 cells) was < 100 nM.
In the case of CN[C@@H](C)C(=O)N[C@H](C(=O)N1CC[C@@H]2[C@H]1[C@@H](C(=O)NCC1CCCCC1)CN2S(C)(=O)=O)C1CCCCC1 [Example 19, 4-[2-Cyclohexyl-2-(2-methylamino-propionylamino)-acetyl]-1-methanesulfonyl-octahydro-pyrrolo[3,2-b]pyrrole-3-carboxylic acid cyclohexylmethyl-amide], the Kd (XIAP BIR-3) was < 100 nM, the Kd (cIAP-1 BIR-3) was < 100 nM and the CC50 (SK-OV-3 cells) was < 100 nM.
For CNC(C)C(=O)NC(C(=O)N1CCC2C1C(C(=O)NC1CCCc3ccccc31)CN2C(=O)C1CC1)C1CCCCC1 (stereo not drawn) [Example 33, 4-[2-Cyclohexyl-2-(2-methylamino-propionylamino)-acetyl]-1-cyclopropanecarbonyl-octahydro-pyrrolo[3,2-b]pyrrole-3-carboxylic acid (1,2,3,4-tetrahydro-naphthalen-1-yl)-amide], the Kd (XIAP BIR-3) was < 100 nM, the Kd (cIAP-1 BIR-3) was < 100 nM and the CC50 (SK-OV-3 cells) was < 100 nM.
CN[C@@H](C)C(=O)N[C@H](C(=O)N1CC[C@@H]2[C@H]1[C@@H](C(=O)NCCc1ccccc1)CN2S(C)(=O)=O)C1CCCCC1 [Example 16, 4-[2-Cyclohexyl-2-(2-methylamino-propionylamino)-acetyl]-1-methanesulfonyl-octahydro-pyrrolo[3,2-b]pyrrole-3-carboxylic acid-phenethyl-amide] was tested, and the Kd (XIAP BIR-3) was < 100 nM, the Kd (cIAP-1 BIR-3) was < 100 nM and the CC50 (SK-OV-3 cells) was 100 to 1000 nM.
With CN[C@@H](C)C(=O)N[C@H](C(=O)N1CC[C@@H]2[C@H]1[C@@H](C(=O)N1Cc3ccccc3C1)CN2S(C)(=O)=O)C1CCCCC1 [Example 13, N-{1-Cyclohexyl-2-[6-(1,3-dihydro-isoindole-2-carbonyl)-4-methanesulfonyl-hexahydro-pyrrolo[3,2-b]pyrrol-1-yl]-2-oxo-ethyl}-2-methylamino-propionamide] the Kd (XIAP BIR-3) was < 100 nM, the Kd (cIAP-1 BIR-3) was < 100 nM and the CC50 (SK-OV-3 cells) was < 100 nM.
In the case of CN[C@@H](C)C(=O)N[C@H](C(=O)N1CC[C@@H]2[C@H]1[C@@H](C(=O)N1CCc3ccccc31)CN2S(C)(=O)=O)C1CCCCC1 [Example 15, N-{1-Cyclohexyl-2-[6-(2,3-dihydro-indole-1-carbonyl)-4-methanesulfonyl-hexahydro-pyrrolo[3,2-b]pyrrol-1-yl]-2-oxo-ethyl}-2-methylamino-propionamide], the Kd (XIAP BIR-3) was 100 to 1000 nM, the Kd (cIAP-1 BIR-3) was 100 to 1000 nM and the CC50 (SK-OV-3 cells) was < 100 nM.
With CN[C@@H](C)C(=O)N[C@H](C(=O)N1CC[C@@H]2[C@H]1[C@@H](C(=O)Nc1nccc3ccccc13)CN2S(C)(=O)=O)C(C)(C)C [Example 49, 4-[3,3-Dimethyl-2-(2-methylamino-propionylamino)-butyryl]-1-methanesulfonyl-octahydro-pyrrolo[3,2-b]pyrrole-3-carboxylic acid isoquinolin-1-ylamide] the Kd (XIAP BIR-3) was < 100 nM, the Kd (cIAP-1 BIR-3) was < 100 nM and the CC50 (SK-OV-3 cells) was < 100 nM.
With CN[C@@H](C)C(=O)N[C@H](C(=O)N1CC[C@@H]2[C@H]1[C@@H](C(=O)N[C@@H](C)C1CCCCC1)CN2S(C)(=O)=O)C(C)(C)C [Example 28, 4-[3,3-Dimethyl-2-(2-methylamino-propionylamino)-butyryl]-1-methanesulfonyl-octahydro-pyrrolo[3,2-b]pyrrole-3-carboxylic acid (1S-cyclohexyl-ethyl)-amide] the Kd (XIAP BIR-3) was < 100 nM, the Kd (cIAP-1 BIR-3) was < 100 nM and the CC50 (SK-OV-3 cells) was < 100 nM.
For CN[C@@H](C)C(=O)N[C@H](C(=O)N1CC[C@@H]2[C@H]1[C@@H](C(=O)NCc1ccccc1)CN2S(C)(=O)=O)C1CCCCC1 [Example 2, 4-[2-Cyclohexyl-2-(2-methylamino-propionylamino)-acetyl]-1-methanesulfonyl-octahydro-pyrrolo[3,2-b]pyrrole-3-carboxylic acid benzylamide], the Kd (XIAP BIR-3) was < 100 nM, the Kd (cIAP-1 BIR-3) was < 100 nM and the CC50 (SK-OV-3 cells) was < 100 nM.
With CN[C@@H](C)C(=O)N[C@H](C(=O)N1CC[C@@H]2[C@H]1[C@@H](C(=O)N[C@@H]1CCCc3ccccc31)CN2c1ncccn1)C1CCCCC1 [Example 43, 4-[2-Cyclohexyl-2-(2-methylamino-propionylamino)-acetyl]-1-pyrimidin-2-yl-octahydro-pyrrolo[3,2-b]pyrrole-3-carboxylic acid (1,2,3,4-tetrahydro-naphthalen-1-yl)-amide] the Kd (XIAP BIR-3) was 100 to 1000 nM, the Kd (cIAP-1 BIR-3) was < 100 nM and the CC50 (SK-OV-3 cells) was < 100 nM.
In the case of CN[C@@H](C)C(=O)N[C@H](C(=O)N1CC[C@@H]2[C@H]1[C@@H](C(=O)Nc1cc(C)nn1-c1ccccc1)CN2S(C)(=O)=O)C(C)(C)C [Example 26, 4-[3,3-Dimethyl-2-(2-methylamino-propionylamino)-butyryl]-1-methanesulfonyl-octahydro-pyrrolo[3,2-b]pyrrole-3-carboxylic acid (5-methyl-2-phenyl-2H-pyrazol-3-yl)-amide], the Kd (XIAP BIR-3) was < 100 nM, the Kd (cIAP-1 BIR-3) was < 100 nM and the CC50 (SK-OV-3 cells) was 100 to 1000 nM.
With CN[C@@H](C)C(=O)N[C@H](C(=O)N1CC[C@@H]2[C@H]1[C@@H](C(=O)Nc1cccc3cccnc13)CN2S(C)(=O)=O)C(C)(C)C [Example 46, 4-[3,3-Dimethyl-2-(2-methylamino-propionylamino)-butyryl]-1-methanesulfonyl-octahydro-pyrrolo[3,2-b]pyrrole-3-carboxylic acid quinolin-8-ylamide] the Kd (XIAP BIR-3) was 100 to 1000 nM, the Kd (cIAP-1 BIR-3) was < 100 nM and the CC50 (SK-OV-3 cells) was < 100 nM.
CN[C@@H](C)C(=O)N[C@H](C(=O)N1CC[C@@H]2[C@H]1[C@@H](C(=O)NCc1ccccc1)CN2C(C)=O)C(C)(C)C [Example 38, 1-Acetyl-4-[3,3-dimethyl-2-(2-methylamino-propionylamino)-butyryl]-octahydro-pyrrolo[3,2-b]pyrrole-3-carboxylic acid benzylamide] was tested, and the Kd (XIAP BIR-3) was < 100 nM, the Kd (cIAP-1 BIR-3) was < 100 nM and the CC50 (SK-OV-3 cells) was < 100 nM.
With CN[C@@H](C)C(=O)N[C@H](C(=O)N1CC[C@@H]2[C@H]1[C@@H](C(=O)N[C@@H]1CCCc3ccccc31)CN2C(=O)OC)C1CCCCC1 [Example 39, 4-[2-Cyclohexyl-2-(2-methylamino-propionylamino)-acetyl]-3-(1,2,3,4-tetrahydro-naphthalen-1-ylcarbamoyl)-hexahydro-pyrrolo[3,2-b]pyrrole-1-carboxylic acid methyl ester] the Kd (XIAP BIR-3) was < 100 nM, the Kd (cIAP-1 BIR-3) was < 100 nM and the CC50 (SK-OV-3 cells) was < 100 nM.
CN[C@@H](C)C(=O)N[C@H](C(=O)N1CC[C@@H]2[C@H]1[C@@H](C(=O)N[C@H](C)C1CCCCC1)CN2S(C)(=O)=O)C(C)(C)C [Example 29, 4-[3,3-Dimethyl-2-(2-methylamino-propionylamino)-butyryl]-1-methanesulfonyl-octahydro-pyrrolo[3,2-b]pyrrole-3-carboxylic acid (1R-cyclohexyl-ethyl)-amide] was tested, and the Kd (XIAP BIR-3) was 1000 to 10000 nM, the Kd (cIAP-1 BIR-3) was < 100 nM and the CC50 (SK-OV-3 cells) was 1000 to 10000 nM.
